Consider 14 molecules from PubChem BioAssay AID2060885 (Molecular Pharmacology Branch, DTP, NCI, 2025).

In the assay the test system is NCI-H23 complex spheroids with HUVEC/MSC, viability. Nature of the assay: Anticancer human tumor NCI-H23 cell line growth inhibition [RAS].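 For all read-outs here: spheroids exposed to compound for 7 days.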 The conditions noted are these: for viability, T/C: stronger effect = lower value. The source says: RAS pathway inhibitors in Combinations in Complex Spheroids
A high-throughput screen of multi-cell type tumor spheroids was designed to identify active combinations of RAS pathway inhibitors and targeted small molecules. Complex spheroids include a stromal component modeled by human endothelial cells (HUVEC) and fibroblasts modeled by human mesenchymal stem cells (MSCs). The concentration ranges selected for each drug and investigational agent were based upon clinically achievable concentrations if the clinical Cmax of the agent was known.
Compounds. The drugs and investigational agents: abemaciclib (NSC768073), cobimetinib (NSC768068), divarasib (GDC6063, NSC841802), docetaxel (NSC628503), GDC-1971 (RLY-1971, NSC841576), gemcitabine (NSC613327), inavolisib (NSC800729), ipatasertib (NSC767898), KB-0742 (NSC834161), MRTX-1133 (NSC836407), osimertinib (NSC779217), RMC-4630 (NSC839698), RMC-6236 (NSC851965), RMC-6291 (NSC852671), Ro-3306 (NSC812927), sapanisertib (NSC764658), SN-38 (NSC673596), staurosporine (NSC755774), SY5609 (NSC837396), and tovorafenib (DAY101, NSC766906), were obtained from the National Cancer Institute (NCI) Developmental Therapeutics Program Chemical Repository. The FDA-approved anticancer drug set is available from the NCI Developmental Therapeutics Program. […] The stock solutions were prepared in dimethyl sulfoxide (DMSO, Sigma-Aldrich, St. Louis, MO, cat. D2650) at 800-fold the tested concentration and stored at -70 degrees C prior to their use. All drugs and investigational agents were tested over a range starting from a high concentration at or near the clinical Cmax and decreasing in half-log increments. If the clinical Cmax for an agent had not been determined, the highest concentration tested was 10 microM.
Cell Culture. All cells were maintained in an incubator at 37 degrees C and 5% CO2 with 95% humidity. The PDC lines were cultured according to standard operating procedures established by the NCI PDMR. All PDCs were thawed and cultured in Matrigel-coated flasks prepared with a working solution of 1X Ham's F-12 nutrient mix, without supplementation (Invitrogen, Waltham, MA, cat. 11765054), 100 U/mL penicillin-streptomycin (Invitrogen, cat. 15140122), and 2.5% Matrigel (Corning Inc., Corning, NY, cat. 354248) for the first three passages. The 362531-283-R-J2-PDC and 782815-120-R-J1-PDC lines were cultured in 6C/Colon 1B media, which includes advanced DMEM/F-12 (Thermo Fisher Scientific, cat. 12634028), 10 mM HEPES (Thermo Fisher Scientific, cat. 15630080), 1X GlutaMAX supplement (Thermo Fisher Scientific, cat. 35050061), 0.1 mg/mL primocin (InvivoGen, San Diego, CA, cat. ant-pm-2), 10% defined fetal bovine serum, heat inactivated (HyClone Laboratories Inc., Logan, UT, cat. SH30070.03HI), 50% L-WRN conditioned media (ATCC, cat. CRL-3276), 1.25 mM N-Acetyl-L-cysteine (Sigma-Aldrich, cat. A9165), 10 mM nicotinamide (Sigma-Aldrich, cat. N0636), 1X B-27 supplement (Thermo Fisher Scientific, cat. 17504044), 1X N-2 supplement (Thermo Fisher Scientific, cat. 17502048), 50 ng/mL human EGF (Thermo Fisher Scientific, cat. PHG0311), and 10 microM Y-27632 dihydrochloride (Tocris Bioscience, cat. 1254). The K12877-001-R-J1-PDC line was cultured in 6I media, which includes all 6C/Colon 1B media plus 10 ng/mL human FGF-10 (PeproTech, cat. 100-26), 1 ng/mL human FGF-2 (PeproTech, cat. 100-18B), 1 µM prostaglandin E2 (Tocris Bioscience, cat. 2296), […] hydrocortisone (Sigma-Aldrich, cat. H4001), and […] bovine insulin (Sigma-Aldrich, cat. I6634). The K86415-001-R-J1-PDC line was cultured in 6D media, which includes all 6C/Colon 1B media components minus the L-WRN conditioned media. The 485176-168-R4-J1-PDC was cultured in PANC media, which includes all 6C/Colon 1B media plus 100 ng/mL human FGF-10 (PeproTech, cat. 100-26), 500 nM SB-431542 (Selleckchem, cat. S1067), and 10 nM gastrin (Tocris Bioscience, cat. 3006). […]

[1] abbreviates: compound alone, run of 07/15/2024.
Setting [2] is: compound alone, run of 07/09/2024.

The structures appear in SMILES notation. Where “and” joins values, the source holds several entries; their conditions need not be identical. Equal entries are not always repeated.

As for `C#Cc1c(F)ccc2cc(O)cc(-c3ncc4c(N5CC6CCC(C5)N6)nc(OCC56CCCN5CC(F)C6)nc4c3F)c12` (centres undefined), the viability, T/C is, setting by setting: (compound 0.0316 µM) 108% [middle of 8 runs]; (compound 0.1 µM) 105% [middle of 8 runs]; (compound 0.316 µM) 99.5% [middle of 8 runs]; (compound 1 µM) 89.5% [middle of 8 runs]; (compound 3.16 µM) 63.2% [middle of 8 runs]; (compound 10 µM) 38.2% [middle of 7 runs]. Moreover, the half-inhibitory concentration (IC50) under setting [1] is 5.77 µM [middle of 8 runs].

Regarding `C=CC(=O)N1CCN(c2nc(OCC3CCCN3C)nc3c(F)c(-c4nc(N)cc(C)c4C(F)(F)F)c(Cl)cc23)C(C)C1` (centres undefined), the viability, T/C (compound 0.00316 µM) is 61.5% [middle of 12 runs]; the viability, T/C (compound 0.01 µM) is 48.4% [middle of 12 runs]; the viability, T/C (compound 0.0316 µM) was 39.9% [middle of 12 runs]; the viability, T/C (compound 0.1 µM) is 38.5% [middle of 12 runs]; the viability, T/C (compound 0.316 µM) was 38.3% [middle of 12 runs]; the viability, T/C (compound 1 µM) is 37.2% [middle of 12 runs]. Also, the IC50 was 9 nM [middle of 8 runs] under setting [1]; 0.0085 µM and < 0.00316 µM and 0.00759 µM (curve of compound).

Consider `C=CC(=O)Nc1cc(Nc2nccc(-c3cn(C)c4ccccc34)n2)c(OC)cc1N(C)CCN(C)C`, for which the viability, T/C (compound 0.00316 µM) was 109% (2×) and 103% and 107%; the viability, T/C (compound 0.01 µM) was 105% [middle of 4 runs]; the viability, T/C (compound 0.0316 µM) was 102% [middle of 4 runs]; the viability, T/C (compound 0.316 µM) is 107% [middle of 4 runs]. Also, the half-maximal inhibitory concentration (IC50) (curve of compound) was above 1 µM.

In the case of `CC(C)NCC(C(=O)N1CCN(c2ncnc3c2C(C)CC3O)CC1)c1ccc(Cl)cc1` (centres undefined), the viability, T/C was 103% [middle of 4 runs] (compound 0.0316 µM); 97.1% [middle of 4 runs] (compound 0.1 µM); 102% [middle of 4 runs] (compound 0.316 µM); 93.3% [middle of 4 runs] (compound 1 µM); 73.3% [middle of 4 runs] (compound 3.16 µM). Besides, the half-maximal inhibitory concentration (IC50) (curve of compound) was > 10 µM and 9.19 µM and 9.74 µM.

`CC(C)n1nc(-c2ccc3oc(N)nc3c2)c2c(N)ncnc21`: the viability, T/C by setting is: (compound 0.000316 µM) 102% and 105% (2×) and 106%; (compound 0.00316 µM) 88.6% [middle of 4 runs]; (compound 0.01 µM) 83% [middle of 4 runs]; (compound 0.0316 µM) 61.7% [middle of 4 runs]; (compound 0.1 µM) 53.8% [middle of 4 runs]. Moreover, the IC50 (curve of compound) is 0.0831 µM and > 0.1 µM and 0.067 µM.

In the case of `CC(Nc1ccc2c(c1)OCCn1cc(N3C(=O)OCC3C(F)F)nc1-2)C(N)=O` (centres undefined), the viability, T/C reads like this: (compound 0.0316 µM) 93.5% [middle of 4 runs]; (compound 0.1 µM) 89.5% [middle of 4 runs]; (compound 0.316 µM) 70.2% and 82.1% and 76.3% (2×); (compound 1 µM) 78.9% [middle of 4 runs]; (compound 3.16 µM) 71.8% [middle of 4 runs]; (compound 10 µM) 69.6% [middle of 4 runs]. For the same molecule, where the note is “curve of compound”, the IC50 was above 10 µM.

`CC1(C)CCC(Nc2ncc(C(F)(F)F)c(-c3c[nH]c4c(P(C)(C)=O)c(C#N)ccc34)n2)CN1` (centres undefined): the viability, T/C reads like this: (compound 0.000949 µM) 86.7% [middle of 4 runs]; (compound 0.003 µM) 73.2% [middle of 4 runs]; (compound 0.00949 µM) 51.7% [middle of 4 runs]; (compound 0.03 µM) 49.3% [middle of 4 runs]; (compound 0.0949 µM) 45.9% [middle of 4 runs]; (compound 0.3 µM) 48% [middle of 4 runs].

On to `CCN1CCN(Cc2ccc(Nc3ncc(F)c(-c4cc(F)c5nc(C)n(C(C)C)c5c4)n3)nc2)CC1`, for which the viability, T/C reads like this: (compound 0.00316 µM) 100% and 104% (2×) and 103%; (compound 0.01 µM) 92% [middle of 4 runs]; (compound 0.0316 µM) 78% [middle of 4 runs]; (compound 0.1 µM) 70.2% [middle of 4 runs]; (compound 0.316 µM) 58% [middle of 4 runs]. Moreover, the IC50 (curve of compound) was > 1 µM and 0.434 µM and 0.646 µM.

With `CCc1c2c(nc3ccc(O)cc13)-c1cc3c(c(=O)n1C2)COC(=O)[C@]3(O)CC`, the viability, T/C (compound 0.000949 µM) was 91.1% [middle of 4 runs]; the viability, T/C (compound 0.003 µM) was 59.1% [middle of 4 runs]; the viability, T/C (compound 0.00949 µM) is 32.2% [middle of 4 runs]; the viability, T/C (compound 0.03 µM) was 14.4% [middle of 4 runs]; the viability, T/C (compound 0.0949 µM) was 8.18% [middle of 4 runs]; the viability, T/C (compound 0.3 µM) was 6.26% [middle of 4 runs]. Under “curve of compound”, the half-inhibitory concentration (IC50) was 4.43 nM [middle of 4 runs].

As for `CCn1c(-c2cc(N3CCN(C)CC3)cnc2C(C)OC)c2c3cc(ccc31)-c1csc(n1)CC(NC(=O)C1CC1C)C(=O)N1CCCC(N1)C(=O)OCC(C)(C)C2` (centres undefined), the viability, T/C runs as follows: (compound 0.000949 µM) 45.5% [middle of 8 runs]; (compound 0.003 µM) 36.2% [middle of 8 runs]; (compound 0.00949 µM) 32.6% [middle of 8 runs]; (compound 0.03 µM) 29.9% [middle of 8 runs]; (compound 0.0949 µM) 22.1% [middle of 8 runs]; (compound 0.3 µM) 19.5% [middle of 8 runs]. For the same molecule, the half-inhibitory concentration (IC50) under setting [2] is below 0.000949 µM.

Consider `CCn1c(-c2cccnc2C(C)OC)c2c3cc(ccc31)N1CCOC(CC(NC(=O)C(C(C)C)N(C)C(=O)C3(F)CCN(C(=O)C#CC(C)(C)N(C)C)CC3)C(=O)N3CCCC(N3)C(=O)OCC(C)(C)C2)C1` (centres undefined), for which the viability, T/C reads like this: (compound 0.000949 µM) 32.4% [middle of 8 runs]; (compound 0.00949 µM) 30.6% [middle of 8 runs]; (compound 0.03 µM) 31.6% [middle of 8 runs]; (compound 0.0949 µM) 30.8% [middle of 8 runs]; (compound 0.3 µM) 28.1% [middle of 8 runs]. Further, the IC50 under setting [2] was < 0.000949 µM and 0.00592 µM.

`C[C@@H](NC(=O)c1ncnc(N)c1Cl)c1ncc(C(=O)Nc2cc(C(F)(F)F)c(Cl)cn2)s1`: the viability, T/C is, setting by setting: (compound 0.0316 µM) 107% [middle of 4 runs]; (compound 0.1 µM) 106% and 109% (2×) and 116%; (compound 0.316 µM) 108% [middle of 4 runs]; (compound 1 µM) 101% (2×) and 99.7% and 106%; (compound 3.16 µM) 90.6% [middle of 4 runs]. Also, the 50% inhibitory concentration (IC50) (curve of compound) was above 10 µM.

As to `Nc1ccn(C2OC(CO)C(O)C2(F)F)c(=O)n1` (centres undefined), the viability, T/C is, setting by setting: (compound 0.00316 µM) 77.2% [middle of 4 runs]; (compound 0.01 µM) 15.3% [middle of 4 runs]; (compound 0.0316 µM) 8.37% [middle of 4 runs]; (compound 0.1 µM) 7.36% [middle of 4 runs]; (compound 0.316 µM) 7.15% [middle of 4 runs]; (compound 1 µM) 10.5% [middle of 4 runs]. Further, under “curve of compound”, the IC50 is 5.35 nM [middle of 4 runs].

Regarding `O=C(c1ccc(F)c(F)c1Nc1ccc(I)cc1F)N1CC(O)([C@@H]2CCCCN2)C1`, the viability, T/C (compound 0.0316 µM) was 68.2% [middle of 4 runs]; the viability, T/C (compound 0.1 µM) was 46.3% [middle of 4 runs]; the viability, T/C (compound 0.316 µM) is 34.2% [middle of 4 runs]; the viability, T/C (compound 1 µM) was 19.7% [middle of 4 runs]. In addition, the 50% inhibitory concentration (IC50) (curve of compound) was 78.2 nM [middle of 4 runs].

One may read the viability, T/C as the result in the treated group divided by that in the control group, in per cent. One may read the IC50 as the concentration that gives 50% inhibition.
